These results are taken from patent publication US20220153732A1, “PROTEIN SECRETION INHIBITORS” (KEZAR LIFE SCIENCES, priority 2019, published 2022).

For orientation: EC50 means the concentration that produces a half-maximal response.

What all share (assay type): cell-based
In assay [1] the test system is PD1-ss+10aa/Gaussia Luciferase. As to the kind of experiment: Dox-Induced PD1-ss-Gluc Assay. Conditions: 24 hr doxycycline induction, 293FRT/TO cells, Gaussia luciferase signal; read-out: 24 hr Dox Inducible PD1ssGluc 293FRT/TO: Mean IC50. A digest of the protocol:
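Compounds, diluted in DMSO/media with doxycycline, were added to cells plated a day earlier and kept at 37° C under 5% CO2. The cells stably express a Gaussia luciferase construct fused to PD1-ss+10aa, induced via the T-REx system. Unassigned stereochemistry means mixture data.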

In assay [2] the test system is TNFα-FL/Gaussia Luciferase. As to the kind of experiment: Dox Induced TNFα-FL-Gluc Assay. Conditions: 24 hr doxycycline induction, 293FRT/TO cells, Gaussia luciferase signal; read-out: 24 hr Dox Inducible TNFaFLGluc 293FRT/TO: Mean IC50. A digest of the protocol:
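Compounds were added in doxycycline-containing DMSO/media to cells plated the previous day and incubated at 37° C under 5% CO2. These cells stably express a TNFα-FL/Gaussia luciferase cDNA whose expression is under T-REx (Dox-inducible) control, selected with Hygromycin and Blasticidin.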

Assay [3] deals with HER3-ss+4aa/Gaussia Luciferase. As to the kind of experiment: Dox-Induced Her3-ss-Gluc Assay. Conditions: 24 hr doxycycline induction, 293FRT/TO cells, Gaussia luciferase signal; read-out: 24 hr Dox Inducible Her3(ss + 4)Gluc 293FRT/TO: Mean IC50. In a few lines:
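Compounds, diluted in DMSO/media containing doxycycline, were incubated at 37° C., 5% CO2 with cells seeded one day earlier. The cells stably express HER3-ss+4aa/Gaussia luciferase under T-REx control. Where no stereochemistry is shown, data refer to the mixture of stereoisomers.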

For assay [4], the system named is IL-2-FL/Gaussia Luciferase. As to the kind of experiment: Dox Induced IL2-FL-Gluc Assay. To be noted: 24 hr doxycycline induction, 293FRT/TO cells, Gaussia luciferase signal; read-out: 24 hr Dox Inducible IL2FLGIuc 293FRT/TO: Mean IC50. A digest of the protocol:
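Compounds were added together with doxycycline in DMSO/media and incubated at 37° C., 5% CO2. The cells were a stably selected line carrying IL-2-FL/Gaussia luciferase under T-REx inducible control. Structures drawn without stereochemistry were tested as stereoisomer mixtures.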

The test system of assay [5] is human multiple myeloma cell line NCI-H929. Briefly: H929 Cell Viability Assay. To be noted: 48 hr, NCI-H929 cells, Celltiter-Glo, read-out: 48 hr H929 Viability Celltiter-Glo: Mean EC50. On the procedure:
Plates were incubated at 37° C., 5% CO2 for 48 hours. After 48 hours, Celltiter-Glo® (Promega) was added to each well and luciferase signal was quantified using Tecan Infinite M1000 Pro for cell viability determination.
For chemical structures that include one or more stereoisomers, but are illustrated without indicating stereochemistry, the assay data refers to a mixture of stereoisomers.
(In general: In ATP-based viability assays light output follows the ATP content of the culture.)

The subject of assay [6] is human multiple myeloma cell line U266B1. As to the kind of experiment: U266 Cell Viability Assay. To be noted: U-266, 48 hr, U266B1 cells, Celltiter-Glo, read-out: 48 hr U266 Viability Celltiter-Glo: Mean EC50. In a few lines:
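Viability measured by CellTiter-Glo luciferase signal after 48 h compound exposure (37 °C, 5% CO2) of U266B1 cells in 384-well format. Where stereochemistry is not shown, data refer to the stereoisomer mixture.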

In the case of `CCc1nc(NC(=O)c2cccn2Cc2ccncc2Cl)sc1C` [Compound A66, 1-((3-chloropyridin-4-yl)methyl)-N-(4-ethyl-5-methylthiazol-2-yl)-1H-pyrrole-2-carboxamide], the IC50 in assay [1] was 1.84 µM; in assay [2], above 25 µM; in assay [3], 4.15 µM; in assay [4], 4.78 µM. The EC50 in assay [5] and in assay [6] was above 25 µM in each case.
On to `CC1(c2csc(NC(=O)c3cccn3Cc3ccncc3)n2)CC1` [Compound A67, N-(4-(1-methylcyclopropyl)thiazol-2-yl)-1-(pyridin-4-ylmethyl)-1H-pyrrole-2-carboxamide], for which the IC50 in assay [1] was 1.88 µM; in assay [2], above 25 µM; in assay [3], 3.24 µM; in assay [4] it was 2.08 µM. In addition, the EC50 in assay [5] and in assay [6] was above 25 µM throughout.
`CC(C)OC(C)(C)c1csc(NC(=O)c2cccn2CCCc2ccccc2Cl)n1` [Compound A68, 1-(3-(2-chlorophenyl)propyl)-N-(4-(2-isopropoxypropan-2-yl)thiazol-2-yl)-1H-pyrrole-2-carboxamide]: the IC50 in assay [1] is 2.07 µM; in assay [2], above 25 µM; in assay [3], 2.73 µM; in assay [4], 2.76 µM. The EC50 in assay [5] and in assay [6] was above 25 µM throughout.
Take `CC(C)OC(C)(C)c1csc(NC(=O)c2cccn2Cc2ccnnc2)n1` [Compound A69, N-(4-(2-isopropoxypropan-2-yl)thiazol-2-yl)-1-(pyridazin-4-ylmethyl)-1H-pyrrole-2-carboxamide]: the IC50 in assay [1] was 2.08 µM; in assay [2], above 25 µM; in assay [3], 6.22 µM; in assay [4], 4.17 µM. The EC50 in assay [5] and in assay [6] was above 25 µM each time.
`COc1cc(Cn2cccc2C(=O)Nc2nc(C(C)(C)OC(C)C)cs2)cc(F)n1` [Compound A70, 1-((2-fluoro-6-methoxypyridin-4-yl)methyl)-N-(4-(2-isopropoxypropan-2-yl)thiazol-2-yl)-1H-pyrrole-2-carboxamide]: the IC50 is 2.23 µM in assay [1], above 25 µM in assay [2], 9.39 µM in assay [3] and 5.67 µM in assay [4]. Besides, the EC50 in assay [5] and in assay [6] was above 25 µM throughout.
`CC(C)OC(C)(C)c1csc(NC(=O)c2cccn2CC2CCOCC2)n1` [Compound A71]: the IC50 is 2.28 µM in assay [1], above 25 µM in assay [2], 5.44 µM in assay [3] and 3.54 µM in assay [4]. The EC50 in assay [5] and in assay [6] was above 25 µM each time.
For `Cc1cnc(NC(=O)c2cccn2Cc2ccncc2)s1` [Compound A72, N-(5-methylthiazol-2-yl)-1-(pyridin-4-ylmethyl)-1H-pyrrole-2-carboxamide], the IC50 in assay [1] is 2.47 µM; in assay [2], above 25 µM; in assay [3], 6.11 µM; in assay [4] it was 22.4 µM. Also, the EC50 in assay [5] and in assay [6] was above 25 µM throughout.
For `Cc1ccc2nc(NC(=O)c3cccn3Cc3ccncc3)sc2c1` [Compound A73], the IC50 was 2.47 µM in assay [1], above 25 µM in assay [2], 7.28 µM in assay [3] and 2.02 µM in assay [4]. The EC50 in assay [5] and in assay [6] was above 25 µM in each case.
`CC(C)OC(C)(C)c1csc(NC(=O)c2cccn2[C@@H](C)c2ccncc2)n1` [Compound A74, (S)-N-(4-(2-isopropoxypropan-2-yl)thiazol-2-yl)-1-(1-(pyridin-4-yl)ethyl)-1H-pyrrole-2-carboxamide]: the IC50 in assay [1] was 2.57 µM; in assay [2], above 25 µM; in assay [3] it was 5.39 µM; in assay [4] it was 4.22 µM. Also, the EC50 in assay [5] and in assay [6] was above 25 µM in each case.
